pIC50: −log10 of the molar value. Where two headings read alike, the source gives them in different places.
Target: b-Raf (V600E) (Homo sapiens (Human), UniProt P15056, V600E)
Conditions: read-out: b-Raf IC-50, AlphaScreen
[1] = 60 min pre-incubation, 3 hours reaction
[2] = 60 min pre-incubation, reaction 3 hours at room temperature

b-Raf (V600E), sequence (P15056 whole entry V600E): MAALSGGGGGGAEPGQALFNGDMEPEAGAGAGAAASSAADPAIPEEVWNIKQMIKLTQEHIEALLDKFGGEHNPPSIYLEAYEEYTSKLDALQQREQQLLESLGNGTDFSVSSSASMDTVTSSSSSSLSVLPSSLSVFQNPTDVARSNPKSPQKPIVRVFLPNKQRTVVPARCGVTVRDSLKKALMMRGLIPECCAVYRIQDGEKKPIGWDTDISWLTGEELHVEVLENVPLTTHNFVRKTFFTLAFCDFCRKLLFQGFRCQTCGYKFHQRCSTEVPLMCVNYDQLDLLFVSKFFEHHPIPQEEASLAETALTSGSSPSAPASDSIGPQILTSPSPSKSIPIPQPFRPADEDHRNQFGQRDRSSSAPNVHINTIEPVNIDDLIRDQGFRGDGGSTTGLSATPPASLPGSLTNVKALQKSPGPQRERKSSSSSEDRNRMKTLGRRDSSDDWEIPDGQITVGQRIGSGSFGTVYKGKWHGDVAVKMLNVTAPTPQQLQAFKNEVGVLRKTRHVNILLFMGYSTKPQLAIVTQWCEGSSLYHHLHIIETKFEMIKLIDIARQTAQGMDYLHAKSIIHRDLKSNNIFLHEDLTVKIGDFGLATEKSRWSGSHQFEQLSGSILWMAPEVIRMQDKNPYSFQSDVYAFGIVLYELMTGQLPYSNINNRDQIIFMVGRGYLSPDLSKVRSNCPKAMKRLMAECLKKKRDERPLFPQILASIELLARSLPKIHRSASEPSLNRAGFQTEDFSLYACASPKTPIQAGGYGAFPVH

Compound | pIC50 (Table 2, 3 hours reaction) | pIC50 [1] | pIC50 [2]
CCOc1nnc(-c2cc(NC(=O)c3cccc(S(C)(=O)=O)c3)cnc2C)cc1N1CCOCC1 [Example 618, N-(5-(6-ethoxy-5-morpholinopyridazin-3-yl)-6-methylpyridin-3-yl)-3-(methylsulfonyl)benzamide] | – | 8.30 | –
Cc1ccc(C(=O)Nc2cccc(C(C)(C)O)c2)cc1-c1cc(N2CCOCC2)c(=O)n(C)c1 [Example 439, N-(3-(2-hydroxypropan-2-yl)phenyl)-4-methyl-3-(1-methyl-5-morpholino-6-oxo-1,6-dihydropyridin-3-yl)benzamide] | – | 8.20 | –
Cc1ncc(NC(=O)c2ccnc(C(C)(F)F)c2)cc1-c1cc(N2CCOCC2)c(S(C)(=O)=O)nn1 [Example 920, 2-(1,1-difluoroethyl)-N-(6-methyl-5-(6-(methylsulfonyl)-5-morpholinopyridazin-3-yl)pyridin-3-yl)isonicotinamide] | – | – | 8.05
CCN1CCN(c2cc(C(=O)Nc3ccc(C)c(-c4cc(N5CCOCC5)c(=O)n(C)n4)c3)cc(C(F)(F)F)c2)CC1 [Example 649, 3-(4-ethylpiperazin-1-yl)-N-(4-methyl-3-(1-methyl-5-morpholino-6-oxo-1,6-dihydropyridazin-3-yl)phenyl)-5-(trifluoromethyl)benzamide] | – | 8.34 | –
CCn1cc(C(=O)Nc2ccc(C)c(-c3cc(N4CCOCC4)c(=O)n(C)n3)c2)cc(C(F)(F)F)c1=O [Example 641, 1-ethyl-N-(4-methyl-3-(1-methyl-5-morpholino-6-oxo-1,6-dihydropyridazin-3-yl)phenyl)-6-oxo-5-(trifluoromethyl)-1,6-dihydropyridine-3-carboxamide] | – | 8.57 | –
Cc1ncc(NC(=O)c2ccnc(C3(C#N)CC3)c2)cc1-c1cc(N2CCOCC2)c(=O)n(C)n1 [Example 683, 2-(1-cyanocyclopropyl)-N-(6-methyl-5-(1-methyl-5-morpholino-6-oxo-1,6-dihydropyridazin-3-yl)pyridin-3-yl)isonicotinamide] | – | 7.95 | –
Cc1c(-c2nc3c(c(N4CCOCC4)n2)CS(=O)(=O)C3)cc(NC(=O)c2cccc(C(F)(F)F)c2)c[n+]1[O-] [Example 887, 2-methyl-3-(4-morpholino-6,6-dioxido-5,7-dihydrothieno[3,4-d]pyrimidin-2-yl)-5-(3-(trifluoromethyl)benzamido)pyridine 1-oxide] | – | – | 5.89
Cc1ccc(NC(=O)c2cccc(C(F)(F)F)c2)cc1-c1cc(N2CCS(=O)(=O)CC2)nc(N2CCOCC2)n1 [Example 6, N-(3-(6-(1,1-dioxidothiomorpholino)-2-morpholinopyrimidin-4-yl)-4-methylphenyl)-3-(trifluoromethyl)benzamide] | 8.89 | – | –
Cc1ccc(NC(=O)c2ccnc(C(C)C)c2)cc1-c1cc(N2CCOCC2)nc(N2CCOCC2)c1 [Example 1117, N-(3-(2,6-dimorpholinopyridin-4-yl)-4-methylphenyl)-2-isopropylisonicotinamide] | – | – | 8.88
Cc1ncc(NC(=O)c2cccc(C(F)F)c2)cc1-c1cc(NCCO)nc(N2CCOCC2)c1 [Example 1038, 3-(difluoromethyl)-N-(2′-((2-hydroxyethyl)amino)-2-methyl-6′-morpholino-[3,4′-bipyridin]-5-yl)benzamide] | – | – | 8.54
Cc1ccc(NC(=O)c2cccnn2)cc1-c1ccnc(N2CCOCC2)c1 [Example 67, N-(4-methyl-3-(2-morpholinopyridin-4-yl)phenyl)pyridazine-3-carboxamide] | 6.30 | – | –
Cc1ccc(NC(=O)c2ccnc(C(C)(C)C#N)c2)cc1-c1cc(N2CCOCC2)nc(NC(C)(C)CO)n1 [Example 751, 2-(2-cyanopropan-2-yl)-N-(3-(2-((1-hydroxy-2-methylpropan-2-yl)amino)-6-morpholinopyrimidin-4-yl)-4-methylphenyl)isonicotinamide] | – | 8.85 | –
Cc1ncc(NC(=O)c2ccnc(C(C)(F)F)c2)cc1-c1cc(N2CCO[C@H](CO)C2)n(C)c(=O)c1 [Example 530, (S)-2-(1,1-difluoroethyl)-N-(6′-(2-(hydroxymethyl)morpholino)-1′,2-dimethyl-Z-oxo-1′,2′-dihydro-[3,4′-bipyridin]-5-yl)isonicotinamide] | – | 7.29 | –
Cc1ccc(NC(=O)c2cccc(CC#N)c2)cc1-c1cc(N2CCOCC2)c(=O)n(C)c1 [Example 359, 3-(cyanomethyl)-N-(4-methyl-3-(1-methyl-5-morpholino-6-oxo-1,6-dihydropyridin-3-yl)phenyl)benzamide] | 8.26 | – | –
Cc1ncc(NC(=O)c2cccc(-c3nnco3)c2)cc1-c1cc(N2CCOCC2)nc(N2CC(O)C2)c1 [Example 1092, N-(2′-(3-hydroxyazetidin-1-yl)-2-methyl-6′-morpholino-[3,4′-bipyridin]-5-yl)-3-(1,3,4-oxadiazol-2-yl)benzamide] | – | – | 7.46
Cn1cc(-c2cc(NC(=O)c3ccnc(C(C)(F)F)c3)ccc2Cl)cc(N2CCOCC2)c1=O [Example 414, N-(4-chloro-3-(1-methyl-5-morpholino-6-oxo-1,6-dihydropyridin-3-yl)phenyl)-2-(1,1-difluoroethyl)isonicotinamide] | 8.85 | – | –
Cc1ccc(NC(=O)c2ccnc(C(C)C)c2)cc1-c1cc(N2CCOCC2)n(C)c(=O)c1 [Example 482, 2-isopropyl-N-(4-methyl-3-(1-methyl-6-morpholino-2-oxo-1,2-dihydropyridin-4-yl)phenyl)isonicotinamide] | – | 9.22 | –
Cc1ncc(NC(=O)c2ccnc(C(C)(F)F)c2)cc1-c1cc(NCCO)nc(N2CCOCC2)c1 [Example 1041, 2-(1,1-difluoroethyl)-N-(2′-((2-hydroxyethyl)amino)-2-methyl-6′-morpholino-[3,4′-bipyridin]-5-yl)isonicotinamide] | – | – | 8.24
Cc1ccc(NC(=O)c2cccc(C(F)F)c2)cc1-c1cc(NCCO)nc(N2CCOCC2)c1 [Example 1036, 3-(difluoromethyl)-N-(3-(2-((2-hydroxyethyl)amino)-6-morpholinopyridin-4-yl)-4-methylphenyl)benzamide] | – | – | 9.27

Other lines, results leading:

pIC50 (Table 2, 3 hours reaction) | pIC50 [1] | pIC50 [2] | Compound
8.96 | – | – | CCOc1ncc(-c2cc(NC(=O)c3ccnc(C(F)F)c3)cnc2C)cc1N1CCOCC1 [Example 247, 2-(difluoromethyl)-N-(6′-ethoxy-2-methyl-5′-morpholino-[3,3′-bipyridin]-5-yl)isonicotinamide]
– | – | 8.12 | Cc1ncc(NC(=O)c2cc(C(C)(C)C#N)ccn2)cc1-c1cnc(OC(F)F)c(N2CCOCC2)c1 [Example 981, 4-(2-cyanopropan-2-yl)-N-(6′-(difluoromethoxy)-2-methyl-5′-morpholino-[3,3′-bipyridin]-5-yl)picolinamide]
7.89 | – | – | COc1ncc(-c2cc(NC(=O)c3ccnc(C(C)C)c3)cnc2C)cc1N1CCOCC1 [Example 323, 2-isopropyl-N-(6′-methoxy-2-methyl-5′-morpholino-[3,3′-bipyridin]-5-yl)isonicotinamide]
8.08 | – | – | CCOc1ncc(-c2cc(NC(=O)c3cc(CN(C)C)cc(C(F)(F)F)c3)cnc2C)cc1N1CCOCC1 [Example 258, 3-((dimethylamino)methyl)-N-(6′-ethoxy-2-methyl-5′-morpholino-[3,3′-bipyridin]-5-yl)-5-(trifluoromethyl)benzamide]
7.20 | – | – | Cc1ncc(N(C)C(=O)c2cccc(C(F)(F)F)c2)cc1-c1cnc(OC2CCOCC2)c(N2CCOCC2)c1 [Example 328, N-methyl-N-(2-methyl-5′-morpholino-6′-((tetrahydro-2H-pyran-4-yl)oxy)-[3,3′-bipyridin]-5-yl)-3-(trifluoromethyl)benzamide]
– | – | 8.70 | Cc1ncc(NC(=O)c2cccc(C(F)(F)F)c2)cc1-c1cnc(O[C@@H](C)CO)c(N2CCOCC2)c1 [Example 985, (S)—N-(6′-((1-hydroxypropan-2-yl)oxy)-2-methyl-5′-morpholino-[3,3′-bipyridin]-5-yl)-3-(trifluoromethyl)benzamide]
– | – | 8.64 | Cc1ncc(NC(=O)c2cccc(C(F)(F)F)c2)cc1-c1cnc(OC[C@@H](C)O)c(N2CCOCC2)c1 [Example 984, (R)—N-(6′-(2-hydroxypropoxy)-2-methyl-5′-morpholino-[3,3′-bipyridin]-5-yl)-3-(trifluoromethyl)benzamide]
8.04 | – | – | Cc1ncc(NC(=O)c2cccc(C(F)(F)F)c2)cc1-c1cnc(OC2CCOCC2)c(N2CCOCC2=O)c1 [Example 309, N-(2-methyl-5′-(3-oxomorpholino)-6′-((tetrahydro-2H-pyran-4-yl)oxy)-[3,3′-bipyridin]-5-yl)-3-(trifluoromethyl)benzamide]
– | 7.95 | – | Cc1ncc(NC(=O)c2cccc(C(F)(F)F)c2)cc1-c1cc(N2CCOCC2)nc(N(C)C)n1 [Example 760, N-(5-(2-(dimethylamino)-6-morpholinopyrimidin-4-yl)-6-methylpyridin-3-yl)-3-(trifluoromethyl)benzamide]
7.91 | – | – | Cc1ncc(NC(=O)c2ccnc(C(C)(F)F)c2)cc1-c1cc(N2CCOCC2)c(=O)n(C)c1 [Example 391, 2-(1,1-difluoroethyl)-N-(1′,2-dimethyl-5′-morpholino-6′-oxo-1′,6′-dihydro-[3,3′-bipyridin]-5-yl)isonicotinamide]
7.90 | – | – | Cc1ccc(NC(=O)c2cccc(C(F)(F)F)c2)cc1-c1cc(N2CCOCC2)c(=O)n(CC2(C)COC2)c1 [Example 337, N-(4-methyl-3-(1-((3-methyloxetan-3-yl)methyl)-5-morpholino-6-oxo-1,6-dihydropyridin-3-yl)phenyl)-3-(trifluoromethyl)benzamide]
– | 8.92 | – | Cc1ncc(NC(=O)c2cc(C(F)(F)F)ccn2)cc1-c1cc(N2CCOCC2)c(OC2CCOCC2)nn1 [Example 629, N-(6-methyl-5-(5-morpholino-6-((tetrahydro-2H-pyran-4-yl)oxy)pyridazin-3-yl)pyridin-3-yl)-4-(trifluoromethyl)picolinamide]
8.22 | – | – | Cc1ncc(NC(=O)c2ccnc(C(F)(F)F)c2)cc1-c1cnc(OC2CCOCC2)c(N2CCOCC2)c1 [Example 314, N-(2-methyl-5′-morpholino-6′-((tetrahydro-2H-pyran-4-yl)oxy)-[3,3′-bipyridin]-5-yl)-2-(trifluoromethyl)isonicotinamide]
